The values that follow are results of earlier work, collected in patent EP4506356A1, “METHANOL-INDUCIBLE PROMOTER AND USE THEREOF IN PREPARATION OF L-ALANYL-L-GLUTAMINE” (Wuhan Grand Hoyo Co., Ltd., priority 2022, dated 2023).

Converted amounts (≈) assume the structure as drawn. Residues, ends and D or L forms follow the SMILES beside them.

Regarding `C[C@H](N)C(=O)N[C@@H](CCC(N)=O)C(=O)O` [Alanyl-glutamine dipeptide, L-alanyl-L-glutamine] (H-Ala-Gln-OH), the water solubility is 586 mg/mL (≈ 2700 mM).
